From patent US5580852A, “Derivatives of tachyplesin having inhibitory activity towards plant pathogenic fungi” (Pioneer Hi-Bred International, Inc., priority 1993, dated 1996)

Experiments:
Format in all cases: cell-based
[1] = tested on: Aspergillus flavus; test: Antifungal testing, MIC and MCIC; conditions: comparison table
[2] = tested on: Fusarium moniliforme; test: Antifungal testing, MIC and MCIC; conditions: comparison table
[3] = tested on: E. coli; conditions: bacterial host; statement in words

| Substance | MIC AFL ([1]; known antimicrobial compounds) [µg/mL] | MIC AFL ([1]; value in parentheses) [µM] | MIC FMO ([2]; known antimicrobial compounds) [µg/mL] | MIC FMO ([2]; value in parentheses) [µM] | toxicity to E. coli [3] |
| --- | --- | --- | --- | --- | --- |
| hordothionin | 15 | 3 | 45 | 9 |  |
| CMIII | 60 | 15 | 18.2 | 4.6 |  |
| KWCFRVCYRGICYRRCR [tachyplesin, natural tachyplesin, small peptide originally isolated from the hemocytes of the horseshoe crab, Tachypleus tridentatus] | 6.25 | 2.8 | 6.25 | 2.8 | significant toxicity |
